# Where two headings read alike, the source gives them in different places.
# Key:
# CYP2D6 = CYP2D6 (Homo sapiens (Human), UniProt P10635); assay: Cytochrome P450 inhibition (Vivid CYP blue screening kit), CYP2D6; type: in vitro ADME; conditions: 1 μM
# Description: (§1) Inhibition of CYP2D6 and CYP3A4 was accomplished using recombinant human isoforms and a Vivid CYP blue screening kit (Invitrogen, USA) by incubating 2-fold serial dilutions (9 samples) of the test compound with kit reagents and reaction buffer according to the manufacturer's methods in a 96-well plate. The plate was then incubated at room temperature for 30 min before fluorescence was measured with a plate reader. For these studies, reference standards ketoconazole (CYP3A4) and quinidine (CYP2D6) were used as controls.
# [1] = SAD study NP10679-101, plasma pharmacokinetics; type: in vivo, human
# Description: Each cohort consisted of 8 subjects.
# (±10° C.) until shipment.
# [2] = Liver microsome stability, mouse; type: in vitro ADME; conditions: 1 μM, with cofactors, one-hour incubation at 37° C.
# Description: (§2) Metabolic stability was assessed using human and mouse liver microsomes (Xenotech, USA). The final composition of the assay included 1 μM of the test compound or reference standards (imipramine and diclofenac sodium) prepared from DMSO or acetonitrile stock, so that the final concentration of DMSO and acetonitrile was 0.2% and 0.8%, respectively. The test compound was incubated with 0.5 mg/mL microsomal protein without (100 mM potassium phosphate buffer alone, pH 7.4) or with cofactors (5.0 mM glucose-6-phosphate, 0.06 U glucose-6-phosphate dehydrogenase, 2.0 mM MgCl2, 1.0 mM NADP^+/NADPH). The test compound and standards were incubated at 37° C. with human and mouse liver microsomes; aliquots of the reaction mixture (100 μL) were removed at 0, 5, 15, 30, 60 and 120 min. The reaction in the aliquots was stopped by the addition of 2.5 mL tert-butyl methyl ether and the samples were subjected to shaking for 15 min. […] The percent of the test compound remaining after the specified incubation period was calculated with respect to the peak areas of the test compound at time 0 min.
# (§3) The compound and standards were incubated with human and mouse liver microsomes with or without cofactors, and the samples were extracted and analyzed using LC-MS/MS, as described above.
# CYP3A4 = CYP3A4 (Homo sapiens (Human), UniProt P08684); assay: Cytochrome P450 inhibition (Vivid CYP blue screening kit), CYP3A4; type: in vitro ADME; conditions: 1 μM
# CYP3A4, sequence (P08684 whole entry): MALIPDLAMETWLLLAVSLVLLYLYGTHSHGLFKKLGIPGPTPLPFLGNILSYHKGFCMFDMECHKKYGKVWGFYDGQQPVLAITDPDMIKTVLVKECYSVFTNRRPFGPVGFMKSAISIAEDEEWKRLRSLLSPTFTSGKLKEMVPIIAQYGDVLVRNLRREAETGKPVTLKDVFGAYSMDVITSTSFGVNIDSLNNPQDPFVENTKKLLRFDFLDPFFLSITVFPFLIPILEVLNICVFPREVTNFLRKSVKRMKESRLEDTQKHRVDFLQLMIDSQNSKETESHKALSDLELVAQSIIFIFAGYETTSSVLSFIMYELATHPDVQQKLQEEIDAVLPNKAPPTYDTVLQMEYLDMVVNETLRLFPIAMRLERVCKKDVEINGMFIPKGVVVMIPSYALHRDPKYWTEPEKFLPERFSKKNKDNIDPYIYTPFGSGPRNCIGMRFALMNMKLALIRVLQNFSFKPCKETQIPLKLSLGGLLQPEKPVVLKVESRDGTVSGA
# Description: as §1
# [3] = Liver microsome stability, human; type: in vitro ADME; conditions: 1 μM, with cofactors, one-hour incubation at 37° C.
# Description: as §2, §3
# 5-HT2B = 5-HT2B (Homo sapiens (Human), UniProt P41595); assay: biochemical
# 5-HT2B, sequence (P41595 whole entry, species assumed): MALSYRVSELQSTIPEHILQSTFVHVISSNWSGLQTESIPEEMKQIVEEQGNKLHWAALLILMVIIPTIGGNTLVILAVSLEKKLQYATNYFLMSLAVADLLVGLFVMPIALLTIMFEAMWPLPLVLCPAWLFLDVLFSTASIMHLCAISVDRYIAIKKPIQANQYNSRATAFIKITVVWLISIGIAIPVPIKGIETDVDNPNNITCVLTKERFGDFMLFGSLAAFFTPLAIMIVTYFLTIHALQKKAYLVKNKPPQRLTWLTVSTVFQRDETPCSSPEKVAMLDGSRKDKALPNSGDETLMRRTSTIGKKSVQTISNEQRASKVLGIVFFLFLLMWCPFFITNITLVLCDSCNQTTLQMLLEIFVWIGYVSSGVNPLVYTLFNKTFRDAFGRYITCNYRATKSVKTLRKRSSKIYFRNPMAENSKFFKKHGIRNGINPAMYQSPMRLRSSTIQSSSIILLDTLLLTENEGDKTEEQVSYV
# Description: Briefly, the compound was submitted to the NIMH PDSP and screened at a single concentration (10 μM) of test article under equilibrium conditions for ability to displace specific radioligands from binding to their targets expressed in mammalian cell membranes in vitro. Each receptor target was assayed in quadruplicate and the % inhibition of radioligand binding at each target determined at pH 7.4. […]
# [4] = Pharmacokinetics in the brain compartment compared to plasma in mice; type: in vivo; conditions: BALB/c, mouse; for Cmax at 1 h: iv
# Description: Formulation for pharmacokinetic studies used 2% or 10% N′,N′-dimethylacetamide, 10% propylene glycol, and 30% 2-hydroxypropyl-beta-cyclodextrin in water and a dose volume of 10 mL/kg (all routes of administration).
# Here, brain samples were first washed in deionized water to remove blood, the weight recorded, then transferred into fresh 1 mL water, homogenized, and stored at −80° C. until analysis. The ratio of compound in brain (g) compared to blood (mL) was then calculated.
# [5] = human, plasma, Cohort 1, 5 mg single IV
# [6] = human, plasma, Cohort 2, 15 mg single IV
# [7] = human, plasma, Cohort 3, 50 mg single IV
# [8] = human, plasma, Cohort 4, 100 mg single IV
# [9] = human, plasma, Cohort 5, 150 mg single IV
# [10] = human, plasma, Cohort 6, 200 mg single IV
# CYP2D6, sequence (P10635 whole entry, canonical isoform): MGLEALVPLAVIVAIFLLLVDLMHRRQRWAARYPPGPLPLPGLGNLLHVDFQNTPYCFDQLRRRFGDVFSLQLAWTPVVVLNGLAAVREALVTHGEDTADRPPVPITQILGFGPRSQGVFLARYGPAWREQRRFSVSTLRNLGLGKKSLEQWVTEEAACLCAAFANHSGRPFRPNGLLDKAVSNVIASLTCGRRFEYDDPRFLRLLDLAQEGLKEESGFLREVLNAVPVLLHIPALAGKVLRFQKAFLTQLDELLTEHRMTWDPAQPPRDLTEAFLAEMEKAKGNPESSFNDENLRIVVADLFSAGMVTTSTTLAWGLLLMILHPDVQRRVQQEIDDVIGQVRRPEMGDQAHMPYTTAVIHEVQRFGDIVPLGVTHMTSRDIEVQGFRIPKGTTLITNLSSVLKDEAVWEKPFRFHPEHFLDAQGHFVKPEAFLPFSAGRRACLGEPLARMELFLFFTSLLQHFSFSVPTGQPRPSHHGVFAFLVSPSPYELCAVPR
structure (smiles),measurement,setting,value
O=C1CCc2cc(OC[C@H](O)CN3CCN(c4ccc(C(F)(F)F)cc4)CC3)ccc2N1 [NP10679],inhibition of CYP2D6,CYP2D6,did not inhibit
same,AUMC(0-T) (ng*h^2/mL),"[1]; Cohort 1, 5 mg single IV",5794 ng*h^2/mL
same,AUMC(0-inf) (ng*h^2/mL),"[1]; Cohort 1, 5 mg single IV",35856 ng*h^2/mL
same,CL,"[1]; Cohort 1, 5 mg single IV",9.82 L/h
same,Cmax,"[1]; Cohort 1, 5 mg single IV",26.96 ng/mL
same,T1/2*,"[1]; Cohort 1, 5 mg single IV, harmonic mean",27.6 h
same,AUMC(0-T) (ng*h^2/mL),"[1]; Cohort 2, 15 mg single IV",18219 ng*h^2/mL
same,AUMC(0-inf) (ng*h^2/mL),"[1]; Cohort 2, 15 mg single IV",34553 ng*h^2/mL
same,AUMC(0-T) (ng*h^2/mL),"[1]; Cohort 3, 50 mg single IV",61442 ng*h^2/mL
same,AUMC(0-inf) (ng*h^2/mL),"[1]; Cohort 3, 50 mg single IV",114675 ng*h^2/mL
same,AUMC(0-T) (ng*h^2/mL),"[1]; Cohort 4, 100 mg single IV",201642 ng*h^2/mL
same,AUMC(0-inf) (ng*h^2/mL),"[1]; Cohort 4, 100 mg single IV",253651 ng*h^2/mL
same,AUMC(0-T) (ng*h^2/mL),"[1]; Cohort 5, 150 mg single IV",286984 ng*h^2/mL
same,AUMC(0-inf) (ng*h^2/mL),"[1]; Cohort 5, 150 mg single IV",323299 ng*h^2/mL
same,AUMC(0-T) (ng*h^2/mL),"[1]; Cohort 6, 200 mg single IV",407581 ng*h^2/mL
same,AUMC(0-inf) (ng*h^2/mL),"[1]; Cohort 6, 200 mg single IV",459611 ng*h^2/mL
same,CL,"[1]; Cohort 6, 200 mg single IV",10.39 L/h
same,T1/2*,"[1]; Cohort 6, 200 mg single IV, harmonic mean",17.4 h
same,clearance as percent of the hepatic blood flow,[1]; human hepatic blood flow 87 L/h,less than 12%
same,half-life,"[1]; human, plasma, intravenous, SAD and MAD studies, read-out: half-life (converted)",~20 h
same,clearance,"[1]; human, plasma, iv, 5 mg, Cohort 1, 5 mg single IV",164 mL/min
same,Cmax,"[1]; human, plasma, iv, 5 mg, Cohort 1, 5 mg single IV, read-out: Cmax",30 ± 14.8 ng/mL
same,clearance,"[1]; human, plasma, iv, 15 mg, Cohort 2, 15 mg single IV",200 mL/min
same,Cmax,"[1]; human, plasma, iv, 15 mg, Cohort 2, 15 mg single IV, read-out: Cmax",99.2 ng/mL
same,clearance,"[1]; human, plasma, iv, 50 mg, Cohort 3, 50 mg single IV",183 mL/min
same,Cmax,"[1]; human, plasma, iv, 50 mg, Cohort 3, 50 mg single IV, read-out: Cmax",415 ng/mL
same,clearance,"[1]; human, plasma, iv, 100 mg, Cohort 4, 100 mg single IV",183 mL/min
same,Cmax,"[1]; human, plasma, iv, 100 mg, Cohort 4, 100 mg single IV, read-out: Cmax",746 ng/mL
same,clearance,"[1]; human, plasma, iv, 150 mg, Cohort 5, 150 mg single IV",182 mL/min
same,Cmax,"[1]; human, plasma, iv, 150 mg, Cohort 5, 150 mg single IV, read-out: Cmax",954 ng/mL
same,clearance,"[1]; human, plasma, iv, 200 mg, Cohort 6, 200 mg single IV",173 mL/min
same,Cmax,"[1]; human, plasma, iv, 200 mg, Cohort 6, 200 mg single IV, read-out: Cmax",2070 ± 798 ng/mL
same,AUC(0-inf),[1]; [5],533 ng·h/mL
same,AUC(0-t),[1]; [5],335 ng·h/mL
same,MRT,[1]; [5],52.9 h
same,half-life,"[1]; human, plasma, Cohort 1, 5 mg single IV, harmonic mean, read-out: T1/2* (converted)",27.6 ± 12 h
same,Vd,"[1]; human, plasma, Cohort 1, 5 mg single IV, read-out: Vss",435 L
same,AUC(0-inf),[1]; [6],1280 ng·h/mL
same,AUC(0-t),[1]; [6],1140 ng·h/mL
same,MRT,[1]; [6],26.1 h
same,half-life,"[1]; human, plasma, Cohort 2, 15 mg single IV, harmonic mean, read-out: T1/2* (converted)",20.4 h
same,Vd,"[1]; human, plasma, Cohort 2, 15 mg single IV, read-out: Vss",306 L
same,AUC(0-inf),[1]; [7],4680 ng·h/mL
same,AUC(0-t),[1]; [7],3980 ng·h/mL
same,MRT,[1]; [7],23.8 h
same,half-life,"[1]; human, plasma, Cohort 3, 50 mg single IV, harmonic mean, read-out: T1/2* (converted)",17.8 h
same,Vd,"[1]; human, plasma, Cohort 3, 50 mg single IV, read-out: Vss",255 L
same,AUC(0-inf),[1]; [8],9860 ng·h/mL
same,AUC(0-t),[1]; [8],9370 ng·h/mL
same,MRT,[1]; [8],24.5 h
same,half-life,"[1]; human, plasma, Cohort 4, 100 mg single IV, harmonic mean, read-out: T1/2* (converted)",19.8 h
same,Vd,"[1]; human, plasma, Cohort 4, 100 mg single IV, read-out: Vss",259 L
same,AUC(0-inf),[1]; [9],13800 ng·h/mL
same,AUC(0-t),[1]; [9],13600 ng·h/mL
same,MRT,[1]; [9],23 h
same,half-life,"[1]; human, plasma, Cohort 5, 150 mg single IV, harmonic mean, read-out: T1/2* (converted)",17.9 h
same,Vd,"[1]; human, plasma, Cohort 5, 150 mg single IV, read-out: Vss",250 L
same,AUC(0-inf),[1]; [10],20200 ng·h/mL
same,AUC(0-t),[1]; [10],19700 ng·h/mL
same,MRT,[1]; [10],21.9 h
same,half-life,"[1]; human, plasma, Cohort 6, 200 mg single IV, harmonic mean, read-out: T1/2* (converted)",17.4 ± 2.8 h
same,Vd,"[1]; human, plasma, Cohort 6, 200 mg single IV, read-out: Vss",221 L
same,Vd,"[1]; human, plasma, single IV 5 to 200 mg, read-out: volume of distribution",> 221 L
same,volume of distribution as times of the total body water space,[1]; in vivo,4.5 times
same,percent remaining in mouse liver microsomes,[2],54%
same,inhibition of CYP3A4,CYP3A4,did not inhibit
same,percent remaining in human liver microsomes,[3],72%
same,Ki,5-HT2B,1920 nM
same,concentration at 1 h,"[4]; brain, intraperitoneal, 5 mg/kg, 5 mg/kg IP, 1 hour post dosing, read-out: estimated free drug concentration in the brain",60 to 134 nM
same,concentration at 2 h,"[4]; brain, intraperitoneal, 5 mg/kg, 5 mg/kg IP, 2 hours post dosing, read-out: estimated free drug concentration in the brain",51 to 103 nM
same,concentration at 4 h,"[4]; brain, intraperitoneal, 5 mg/kg, 5 mg/kg IP, 4 hours post dosing, read-out: estimated free drug concentration in the brain",33 to 66 nM
same,concentration at 8 h,"[4]; brain, intraperitoneal, 5 mg/kg, 5 mg/kg IP, 8 hours post dosing, read-out: estimated free drug concentration in the brain",28 to 56 nM
same,concentration at 1 h,"[4]; brain, intravenous, 3 mg/kg, 3 mg/kg IV, Study 1, 1 hour, read-out: Brain Conc.",1740 ng/g
same,concentration at 1 h,"[4]; brain, intravenous, 3 mg/kg, 3 mg/kg IV, Study 2A (2% DMA formulation), 1 hour, read-out: Brain Conc.",1420 ng/g
same,concentration at 1 h,"[4]; brain, intravenous, 3 mg/kg, 3 mg/kg IV, Study 2B, 1 hour, read-out: Brain Conc.",2100 ng/g
same,Cmax at 1 h,"[4]; plasma, 3 mg/kg, 3 mg/kg IV, Study 1, 1 hour",2300 ng/mL
same,Cmax at 1 h,"[4]; plasma, 3 mg/kg, 3 mg/kg IV, Study 2A (2% DMA formulation), 1 hour",600 ng/mL
same,Cmax at 1 h,"[4]; plasma, 3 mg/kg, 3 mg/kg IV, Study 2B, 1 hour",817 ng/mL
same,Tmax,"[4]; plasma, 3 mg/kg IV, Study 1",1 h

# Reference: patent US20240360091A1, “GLUN2B-SUBUNIT SELECTIVE ANTAGONISTS OF THE N-METHYL-D-ASPARTATE RECEPTORS WITH ENHANCED POTENCY AT ACIDIC PH” (Emory University, priority 2021, published 2024)
